In the supplement of paper PMC10627819:

Assays:
S. aureus DSM 20231 = experiment: Bliss interaction score (quartile over a dose matrix) (fitness difference); higher = more antagonism (negative = synergy)
In short: (§1)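 Each OD595 reading at entry into stationary phase was scaled to the robust mean of the untreated wells on its plate, with a ceiling of 1. These ratios define fitness, and single-drug fitness was inferred from combinations. The Bliss score compares observed fitness with the product-based expectation and is reported as quartiles across all replicate types, technical, biological and donor/recipient.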

S. aureus Newman = experiment: as above
In short: as §1

S. pneumoniae D39V [1] = experiment: as above
In short: as §1

B. subtilis 168 [2] = experiment: as above
In short: as §1

S. pneumoniae D39V [3] = experiment: fitness (endpoint OD595 vs no drug) (fraction); higher = more growth
In short: (§2)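 Plates with 384 wells were inoculated at OD595 0.01 using 30 µl of TSB, LB Lennox or CY, or 55 µl for S. pneumoniae. Incubation was at 37 °C, with OD595 measured every 30 min for 14 h. Fitness is the stationary-phase transition optical density over the robust mean of no-drug control wells, after first-reading background subtraction; it is capped at 1.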

B. subtilis 168 [4] = experiment: as above
In short: as §2
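For Bliss interaction score (quartile over a dose matrix) in this document: first quartile when negative (synergy) and third quartile when positive (antagonism).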

CO[C@H]1/C=C/O[C@@]2(C)Oc3c(C)c(O)c4c(O)c(c(/C=N/N5CCN(C)CC5)c(O)c4c3C2=O)NC(=O)/C(C)=C\C=C\[C@H](C)[C@H](O)[C@@H](C)[C@@H](O)[C@@H](C)[C@H](OC(C)=O)[C@@H]1C [Rifampicin] + CC1=C\[C@@H](O)CC(=O)Cc2nc(co2)C(=O)N2CCC=C2C(=O)O[C@H](C(C)C)[C@H](C)/C=C/C(=O)NC\C=C\1 [Virginiamycin M1]
Settings	Bliss interaction score
B. subtilis 168 [2]	-0.0938
S. aureus DSM 20231	0.0924
S. aureus Newman	-0.0218
S. pneumoniae D39V [1]	0.111

S. pneumoniae D39V [3], one replicate
Settings	fitness
first compound 0.025 µg/mL, partner 0.5 µg/mL	0.876
first compound 0.025 µg/mL, partner 1 µg/mL	0.905
first compound 0.025 µg/mL, partner 2 µg/mL	0.822
first compound 0.05 µg/mL, partner 0.15 µg/mL	≥ 1
first compound 0.05 µg/mL, partner 0.3 µg/mL	0.993
first compound 0.1 µg/mL, partner 0.15 µg/mL	0.891
first compound 0.1 µg/mL, partner 0.3 µg/mL	0.884
first compound 0.2 µg/mL, partner 0.15 µg/mL	0.267
first compound 0.2 µg/mL, partner 0.3 µg/mL	0.203

S. pneumoniae D39V [3], first compound 0.2 µg/mL
Settings	fitness
partner 0.5 µg/mL	0.194
partner 1 µg/mL	0.0581
partner 2 µg/mL	0.129

CO[C@H]1/C=C/O[C@@]2(C)Oc3c(C)c(O)c4c(O)c(c(/C=N/N5CCN(C)CC5)c(O)c4c3C2=O)NC(=O)/C(C)=C\C=C\[C@H](C)[C@H](O)[C@@H](C)[C@@H](O)[C@@H](C)[C@H](OC(C)=O)[C@@H]1C [Rifampicin] + CN(C)c1cc(NC(=O)CNC(C)(C)C)c(O)c2c1C[C@H]1C[C@H]3[C@H](N(C)C)C(O)=C(C(N)=O)C(=O)[C@@]3(O)C(O)=C1C2=O [Tigecycline]
Settings	Bliss interaction score
B. subtilis 168 [2]	0.0457
S. aureus DSM 20231	0.026
S. aureus Newman	-0.0189
S. pneumoniae D39V [1]	-0.0785

S. pneumoniae D39V [3], first compound 0.025 µg/mL, one replicate
Settings	fitness
partner 0.65 µg/mL	0.86
partner 1.3 µg/mL	0.808
partner 2.6 µg/mL	0.839

S. pneumoniae D39V [3], first compound 0.2 µg/mL
Settings	fitness
partner 0.65 µg/mL	0.197
partner 1.3 µg/mL	0.159
partner 2.6 µg/mL	0.196

CO[C@H]1/C=C/O[C@@]2(C)Oc3c(C)c(O)c4c(O)c(c(/C=N/N5CCN(C)CC5)c(O)c4c3C2=O)NC(=O)/C(C)=C\C=C\[C@H](C)[C@H](O)[C@@H](C)[C@@H](O)[C@@H](C)[C@H](OC(C)=O)[C@@H]1C [Rifampicin] + CN(N=O)C(=O)N[C@@H](C=O)[C@@H](O)[C@H](O)[C@H](O)CO [Streptozotocin]
Settings	Bliss interaction score
B. subtilis 168 [2]	-0.0644
S. aureus DSM 20231	0.034
S. aureus Newman	-0.0244
S. pneumoniae D39V [1]	-0.0476

S. pneumoniae D39V [3], first compound 0.025 µg/mL, one replicate
Settings	fitness
partner 1.2 µg/mL	0.825
partner 2.4 µg/mL	0.838
partner 4.8 µg/mL	0.786

fitness, S. pneumoniae D39V [3]
Settings	partner 1.2 µg/mL	partner 2.4 µg/mL	partner 4.8 µg/mL
first compound 0.05 µg/mL	0.831	0.879	0.766
first compound 0.2 µg/mL	0.0914	0.108	0

CN[C@@H]1[C@H](O[C@H]2[C@H](O[C@H]3[C@H](O)[C@@H](O)[C@H](N=C(N)N)[C@@H](O)[C@@H]3N=C(N)N)O[C@@H](C)[C@]2(O)C=O)O[C@@H](CO)[C@H](O)[C@H]1O [Streptomycin] + COc1cc(Cc2cnc(N)nc2N)cc(OC)c1OC [Trimethoprim]
Settings	Bliss interaction score
B. subtilis 168 [2]	-0.252
S. aureus DSM 20231	-0.0639
S. aureus Newman	0.0902
S. pneumoniae D39V [1]	-0.175

fitness, B. subtilis 168 [4], one replicate
Settings	partner 0.1 µg/mL	partner 0.125 µg/mL	partner 0.2 µg/mL	partner 0.4 µg/mL
first compound 2 µg/mL	0.713	0.605	0.493	0.253
first compound 4 µg/mL	0.0534	0.0554	0.0535	0.0313
first compound 8 µg/mL	0.0279	0.0253	0.0392	0.025

fitness, B. subtilis 168 [4]
Settings	partner 0.25 µg/mL	partner 0.5 µg/mL	partner 1 µg/mL	partner 2 µg/mL
first compound 2 µg/mL	0.416	0.103	0.0483	0.0464
first compound 4 µg/mL	0.0303	0.0474	0.0558	0.0621
first compound 8 µg/mL	0.0127	0.0322	0.0309	0.0326
